According to patent US20220104492A1, “PYRIDAZINIUM COMPOUNDS FOR USE IN A METHOD OF CONTROLLING UNWANTED PLANT GROWTH” (SYNGENTA CROP PROTECTION AG, priority 2019, published 2022):
Structures can show the parent of a compound that is named as a salt.

Columns and labels:
Assay in all cases: Post-emergence efficacy (glasshouse, spray application)
Type in all cases: in vivo
[1] = tested on: Amaranthus palmeri (AMAPA); details: 312 h, Application rate 500 g/Ha, evaluated after 13 days, 100=total damage to plant, 0=no damage to plant, read-out: Control of weed species after post-emergence application, AMAPA
Experimental: (§1) Seeds of a variety of test species were sown in standard soil in pots. After cultivation for 14 days (post-emergence) under controlled conditions in a glasshouse (at 24/16° C., day/night; 14 hours light; 65 humidity), the plants were sprayed with an aqueous spray solution derived from the dissolution of the technical active ingredient formula (I) in a small amount of acetone and a special solvent and emulsifier mixture referred to as IF50 (11.12% Emulsogen EL360 TM+44.44% N-methylpyrrolidone+44.44% Dowanol DPM glycol ether), to create a 50 g/l solution which was then diluted to required concentration using a solution of 0.25% or 1% Empicol ESC70 (Sodium lauryl ether sulphate)+1% ammonium sulphate in water as diluent.
(§2) The test plants were then grown in a glasshouse under controlled conditions (at 24/16° C., day/night; 14 hours light; 65% humidity) and watered twice daily. After 13 days the test was evaluated (100=total damage to plant; 0=no damage to plant).
(§3) Ipomoea hederacea (IPOHE), Euphorbia heterophylla (EPHHL), Chenopodium album (CHEAL), Amaranthus palmeri (AMAPA), Lolium perenne (LOLPE), Digitaria sanguinalis (DIGSA), Eleusine indica (ELEIN), Echinochloa crus-galli (ECHCG), Setaria faberi (SETFA)

[2] = tested on: Chenopodium album (CHEAL); details: 312 h, Application rate 500 g/Ha, evaluated after 13 days, 100=total damage to plant, 0=no damage to plant, read-out: Control of weed species after post-emergence application, CHEAL
Experimental: as §1, §2, §3

[3] = tested on: Digitaria sanguinalis (DIGSA); details: 312 h, Application rate 500 g/Ha, evaluated after 13 days, 100=total damage to plant, 0=no damage to plant, read-out: Control of weed species after post-emergence application, DIGSA
Experimental: as §1, §2, §3

[4] = tested on: Echinochloa crus-galli (ECHCG); details: 312 h, Application rate 500 g/Ha, evaluated after 13 days, 100=total damage to plant, 0=no damage to plant, read-out: Control of weed species after post-emergence application, ECHCG
Experimental: as §1, §2, §3

Eleusine indica (ELEIN) = details: 312 h, Application rate 500 g/Ha, evaluated after 13 days, 100=total damage to plant, 0=no damage to plant, read-out: Control of weed species after post-emergence application, ELEIN
Experimental: as §1, §2, §3

[5] = tested on: Euphorbia heterophylla (EPHHL); details: 312 h, Application rate 500 g/Ha, evaluated after 13 days, 100=total damage to plant, 0=no damage to plant, read-out: Control of weed species after post-emergence application, EPHHL
Experimental: as §1, §2, §3

[6] = tested on: Ipomoea hederacea (IPOHE); details: 312 h, Application rate 500 g/Ha, evaluated after 13 days, 100=total damage to plant, 0=no damage to plant, read-out: Control of weed species after post-emergence application, IPOHE
Experimental: as §1, §2, §3

Lolium perenne (LOLPE) = details: 312 h, Application rate 500 g/Ha, evaluated after 13 days, 100=total damage to plant, 0=no damage to plant, read-out: Control of weed species after post-emergence application, LOLPE
Experimental: as §1, §2, §3

Setaria faberi (SETFA) = details: 312 h, Application rate 500 g/Ha, evaluated after 13 days, 100=total damage to plant, 0=no damage to plant, read-out: Control of weed species after post-emergence application, SETFA
Experimental: as §1, §2, §3

O=C(O)CNC(=O)CC[n+]1ccc(-c2cccnn2)cn1 [Compound A27]
pest or weed control at 500 g/ha [1]: 100% | pest or weed control at 500 g/ha [2]: 100% | pest or weed control at 500 g/ha [3]: 100% | pest or weed control at 500 g/ha [4]: 90% | pest or weed control at 500 g/ha (Eleusine indica (ELEIN)): 60% | pest or weed control at 500 g/ha [5]: 90% | pest or weed control at 500 g/ha [6]: 40% | pest or weed control at 500 g/ha (Lolium perenne (LOLPE)): 70% | pest or weed control at 500 g/ha (Setaria faberi (SETFA)): 100%

O=C(O)CSC[n+]1ccc(-c2ncccn2)cn1 [Compound A33, 2-[(4-pyrimidin-2-ylpyridazin-1-ium-1-yl)methylsulfanyl]acetic acid 2,2,2-trifluoroacetate]
pest or weed control at 500 g/ha [1]: 100% | pest or weed control at 500 g/ha [2]: 100% | pest or weed control at 500 g/ha [3]: 100% | pest or weed control at 500 g/ha [4]: 100% | pest or weed control at 500 g/ha (Eleusine indica (ELEIN)): 100% | pest or weed control at 500 g/ha [5]: 100% | pest or weed control at 500 g/ha [6]: 40% | pest or weed control at 500 g/ha (Lolium perenne (LOLPE)): 70% | pest or weed control at 500 g/ha (Setaria faberi (SETFA)): 90%

O=C(O)CSCC[n+]1ccc(-c2cccnn2)cn1 [Compound A18]
pest or weed control at 500 g/ha [1]: 100% | pest or weed control at 500 g/ha [2]: 90% | pest or weed control at 500 g/ha [3]: 60% | pest or weed control at 500 g/ha [4]: 60% | pest or weed control at 500 g/ha (Eleusine indica (ELEIN)): 100% | pest or weed control at 500 g/ha [5]: 100% | pest or weed control at 500 g/ha [6]: 70% | pest or weed control at 500 g/ha (Lolium perenne (LOLPE)): 70% | pest or weed control at 500 g/ha (Setaria faberi (SETFA)): 60%

O=S(=O)([O-])OCCOCC[n+]1ccc(-c2ncccn2)cn1 [Compound A21, 2-[2-(4-pyrimidin-2-ylpyridazin-1-ium-1-yl)ethoxy]ethyl sulfate]
pest or weed control at 500 g/ha [1]: 100% | pest or weed control at 500 g/ha [2]: 70% | pest or weed control at 500 g/ha [3]: 70% | pest or weed control at 500 g/ha [4]: 80% | pest or weed control at 500 g/ha (Eleusine indica (ELEIN)): 80% | pest or weed control at 500 g/ha [5]: 90% | pest or weed control at 500 g/ha [6]: 40% | pest or weed control at 500 g/ha (Lolium perenne (LOLPE)): 40% | pest or weed control at 500 g/ha (Setaria faberi (SETFA)): 70%

OCCOCC[n+]1ccc(-c2ncccn2)cn1 [Compound A17, 2-[2-(4-pyrimidin-2-ylpyridazin-1-ium-1-yl)ethoxy]ethanol 2,2,2-trifluoroacetate]
pest or weed control at 500 g/ha [1]: 30% | pest or weed control at 500 g/ha [2]: 50% | pest or weed control at 500 g/ha [4]: 30% | pest or weed control at 500 g/ha (Eleusine indica (ELEIN)): 20% | pest or weed control at 500 g/ha [5]: 30% | pest or weed control at 500 g/ha [6]: 0% | pest or weed control at 500 g/ha (Lolium perenne (LOLPE)): 10% | pest or weed control at 500 g/ha (Setaria faberi (SETFA)): 20%

O=C(C[n+]1ccc(-c2ncccn2)cn1)NC(C(=O)O)c1ccccc1 (stereo not shown) [Compound A13]
pest or weed control at 500 g/ha [1]: 100% | pest or weed control at 500 g/ha [2]: 50% | pest or weed control at 500 g/ha [3]: 100% | pest or weed control at 500 g/ha [4]: 80% | pest or weed control at 500 g/ha (Eleusine indica (ELEIN)): 90% | pest or weed control at 500 g/ha [5]: 50% | pest or weed control at 500 g/ha [6]: 40% | pest or weed control at 500 g/ha (Lolium perenne (LOLPE)): 30% | pest or weed control at 500 g/ha (Setaria faberi (SETFA)): 70%

CCCC(NC(=O)C[n+]1ccc(-c2ncccn2)cn1)C(=O)O (stereo not shown) [Compound A3]
pest or weed control at 500 g/ha [1]: 100% | pest or weed control at 500 g/ha [2]: 100% | pest or weed control at 500 g/ha [3]: 90% | pest or weed control at 500 g/ha [4]: 90% | pest or weed control at 500 g/ha (Eleusine indica (ELEIN)): 100% | pest or weed control at 500 g/ha [5]: 100% | pest or weed control at 500 g/ha [6]: 70% | pest or weed control at 500 g/ha (Lolium perenne (LOLPE)): 50% | pest or weed control at 500 g/ha (Setaria faberi (SETFA)): 70%

O=C(CC[n+]1ccc(-c2ncccn2)cn1)NC1(C(=O)O)CC1 [Compound A38]
pest or weed control at 500 g/ha [1]: 100% | pest or weed control at 500 g/ha [2]: 100% | pest or weed control at 500 g/ha [3]: 90% | pest or weed control at 500 g/ha [4]: 50% | pest or weed control at 500 g/ha (Eleusine indica (ELEIN)): 100% | pest or weed control at 500 g/ha [5]: 80% | pest or weed control at 500 g/ha [6]: 10% | pest or weed control at 500 g/ha (Lolium perenne (LOLPE)): 90% | pest or weed control at 500 g/ha (Setaria faberi (SETFA)): 100%

O=C(O)CNS(=O)(=O)CC[n+]1ccc(-c2ncccn2)cn1 [Compound A29, 2-[2-(4-pyrimidin-2-ylpyridazin-1-ium-1-yl)ethylsulfonylamino]-acetic acid 2,2,2-trifluoroacetate]
pest or weed control at 500 g/ha [1]: 100% | pest or weed control at 500 g/ha [2]: 70% | pest or weed control at 500 g/ha [4]: 50% | pest or weed control at 500 g/ha (Eleusine indica (ELEIN)): 70% | pest or weed control at 500 g/ha [5]: 90% | pest or weed control at 500 g/ha [6]: 40% | pest or weed control at 500 g/ha (Lolium perenne (LOLPE)): 50% | pest or weed control at 500 g/ha (Setaria faberi (SETFA)): 60%
